Assay results reported in patent publication US6635235B1, “Bifunctional chelating agent for the design and development of site specific radiopharmaceuticals and biomolecule conjugation strategy” (The Curators of the University of Missouri, priority 1999, dated 2003).

Experiment: Stability of -PH2 compounds under storage and reaction conditions
Type: physicochemical
Details: variety of solvents, wide pH range and temperature range
Description: As a result of working with the NH2(CH2)3 PH2 intermediate, it was recognized that the intermediate was unexpectedly stable under a variety of storage and reaction conditions.
Furthermore, the reactivity of the —PH2 groups in these compounds toward molecules containing a wide spectrum of functional groups (including carboxylic acids, amines, thiols, and proteins) was remarkably low or non-measurable.

NCCCP [NH2(CH2)3 PH2, 3-Aminopropylphosphine]
stability under storage and reaction conditions: reasonably stable
